Reference: PubChem BioAssay AID248 (DTP/NCI, 2004)
Several values for one entry are separate records, joined by “and”; a condition that tells them apart may be missing. Equal entries are not always repeated. Inconclusive results and toxic doses are left out. Cut-off read from the data, not from the text of the source: active = T/C of 150% or more; inactive = T/C below 125%.

Test system: L1210 leukemia ip in BDF1 mice, survival T/C
Assay: NCI In Vivo Anticancer Drug Screen. Data for tumor model L1210 Leukemia (intraperitoneal) in B6D2F1 (BDF1) mice
Details: endpoint: mean survival time, higher = longer survival
Method in brief: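 Ratio derived from survival: compound-dosed mice over vehicle-dosed mice, all bearing a transplantable tumor.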

[1] = dose: 100.0 mg/kg/injection, schedule: Q01DX009 (ip), vehicle: Klucel (hydroxypropylcellulose) (HPC)
[2] = dose: 200.0 mg/kg/injection, schedule: Q01DX009 (ip), vehicle: Klucel (hydroxypropylcellulose) (HPC)
[3] = dose: 400.0 mg/kg/injection, schedule: Q01DX009 (ip), vehicle: Klucel (hydroxypropylcellulose) (HPC)
[4] = dose: 100.0 mg/kg/injection, schedule: Q01DX001 (ip), vehicle: Klucel (hydroxypropylcellulose) (HPC)
[5] = dose: 200.0 mg/kg/injection, schedule: Q01DX001 (ip), vehicle: Klucel (hydroxypropylcellulose) (HPC)
[6] = dose: 400.0 mg/kg/injection, schedule: Q01DX001 (ip), vehicle: Klucel (hydroxypropylcellulose) (HPC)
[7] = dose: 100.0 mg/kg/injection, schedule: Q04DX003 (ip), vehicle: Klucel (hydroxypropylcellulose) (HPC)
[8] = dose: 200.0 mg/kg/injection, schedule: Q04DX003 (ip), vehicle: Klucel (hydroxypropylcellulose) (HPC)
[9] = dose: 400.0 mg/kg/injection, schedule: Q04DX003 (ip), vehicle: Klucel (hydroxypropylcellulose) (HPC)
[10] = dose: 100.0 mg/kg/injection, schedule: Q04DX003 (ip), vehicle: saline with Tween-80
[11] = dose: 200.0 mg/kg/injection, schedule: Q04DX003 (ip), vehicle: saline with Tween-80
[12] = dose: 400.0 mg/kg/injection, schedule: Q04DX003 (ip), vehicle: saline with Tween-80
[13] = dose: 100.0 mg/kg/injection, schedule: Q01DX001 (ip), vehicle: saline
[14] = dose: 200.0 mg/kg/injection, schedule: Q01DX001 (ip), vehicle: saline
[15] = dose: 400.0 mg/kg/injection, schedule: Q01DX001 (ip), vehicle: saline
[16] = dose: 100.0 mg/kg/injection, schedule: Q01DX009 (ip), vehicle: saline with Tween-80
[17] = dose: 200.0 mg/kg/injection, schedule: Q01DX009 (ip), vehicle: saline with Tween-80

Measured: T/C

CC(=O)[O][Hg][c]1cc2c(cc1N)C(=O)c1ccccc1-2
inactive: dose: 12.5 mg/kg/injection, schedule: Q01DX001 (ip), vehicle: carboxymethylcellulose (CMC) 102 % of control

CN(CCC#N)c1ccc(C=C(C#N)C#N)cc1
inactive: [1] 92 % of control | [2] 95 % of control | [3] 97 % of control

Nc1c(Cl)cc(Cl)c(-c2c(Cl)cc(Cl)c([N+](=O)[O-])c2Cl)c1Cl
inactive: [4] 106 % of control | [5] 101 % of control | [6] 95 % of control

O=[N+]([O-])c1ccc(C(Cl)C2(Br)C=c3ccccc3=C2)cc1 (stereo unspecified)
inactive: [1] 103 % of control | [7] 105 % of control | [2] 98 % of control | [8] 94 % of control | [3] 95 % of control | [9] 97 % of control

O=C(/C=C(\c1ccccc1)N1CC1)c1ccccc1
inactive: [7] 106 % of control | [8] 110 % of control

O=C(/C(=N\N=C\c1c(O)ccc2ccccc12)c1ccccc1)c1ccccc1
inactive: [10] 96 % of control | [11] 98 % of control | [12] 94 % of control

O=C(O)C12CCC(CC1)CC2
inactive: dose: 75.0 mg/kg/injection, schedule: Q01DX009 (ip), vehicle: saline 100 % of control | [13] 93 % of control | dose: 150.0 mg/kg/injection, schedule: Q01DX009 (ip), vehicle: saline 103 % of control | [14] 88 % of control | dose: 300.0 mg/kg/injection, schedule: Q01DX009 (ip), vehicle: saline 100 % of control | [15] 90 % of control

COc1ccc([N+](=O)[O-])cc1NC(=O)N1CCCCC1C (stereo unspecified)
inactive: [4] 101 % of control | [1] 98 % of control and 102 % of control | dose: 100.0 mg/kg/injection, schedule: Q04DX002 (ip), vehicle: Klucel (hydroxypropylcellulose) (HPC) 97 % of control and 103 % of control | [7] 106 % of control | [5] 102 % of control | [2] 98 % of control and 106 % of control | dose: 200.0 mg/kg/injection, schedule: Q04DX002 (ip), vehicle: Klucel (hydroxypropylcellulose) (HPC) 94 % of control and 105 % of control | [8] 99 % of control | [6] 96 % of control | [3] 95 % of control and 96 % of control | dose: 400.0 mg/kg/injection, schedule: Q04DX002 (ip), vehicle: Klucel (hydroxypropylcellulose) (HPC) 94 % of control and 110 % of control | [9] 91 % of control

CCOCCc1ccccn1
inactive: dose: 100.0 mg/kg/injection, schedule: Q01DX009 (ip), vehicle: saline 113 % of control | dose: 100.0 mg/kg/injection, schedule: Q04DX003 (ip), vehicle: saline 103 % of control | dose: 200.0 mg/kg/injection, schedule: Q01DX009 (ip), vehicle: saline 100 % of control | dose: 200.0 mg/kg/injection, schedule: Q04DX003 (ip), vehicle: saline 103 % of control | dose: 400.0 mg/kg/injection, schedule: Q01DX009 (ip), vehicle: saline 96 % of control | dose: 400.0 mg/kg/injection, schedule: Q04DX003 (ip), vehicle: saline 101 % of control

CC(=O)Nc1ccc(NC(=O)c2ccccc2Cl)cc1
inactive: [16] 93 % of control and 102 % of control | dose: 100.0 mg/kg/injection, schedule: Q04DX002 (ip), vehicle: saline with Tween-80 105 % of control and 90 % of control | [10] 98 % of control | [17] 96 % of control and 97 % of control | dose: 200.0 mg/kg/injection, schedule: Q04DX002 (ip), vehicle: saline with Tween-80 90 % of control and 91 % of control | [11] 95 % of control | dose: 400.0 mg/kg/injection, schedule: Q01DX009 (ip), vehicle: saline with Tween-80 117 % of control and 91 % of control | dose: 400.0 mg/kg/injection, schedule: Q04DX002 (ip), vehicle: saline with Tween-80 101 % of control and 110 % of control | [12] 98 % of control

O=C1NC(c2cccc3ccccc23)Nc2ccc(Cl)cc21 (stereo unspecified)
inactive: dose: 50.0 mg/kg/injection, schedule: Q01DX009 (ip), vehicle: Klucel (hydroxypropylcellulose) (HPC) 108 % of control and 109 % of control | dose: 150.0 mg/kg/injection, schedule: Q01DX009 (ip), vehicle: Klucel (hydroxypropylcellulose) (HPC) 116 % of control

CCCCCCCCCCNCCS
inactive: dose: 4.0 mg/kg/injection, schedule: Q01DX015 (ip), vehicle: carboxymethylcellulose (CMC) 105 % of control | dose: 5.0 mg/kg/injection, schedule: Q01DX001 (ip), vehicle: carboxymethylcellulose (CMC) 109 % of control | dose: 5.0 mg/kg/injection, schedule: Q04DX003 (ip), vehicle: saline sonified 101 % of control | dose: 8.0 mg/kg/injection, schedule: Q01DX015 (ip), vehicle: carboxymethylcellulose (CMC) 103 % of control | dose: 10.0 mg/kg/injection, schedule: Q01DX001 (ip), vehicle: carboxymethylcellulose (CMC) 103 % of control | dose: 10.0 mg/kg/injection, schedule: Q04DX003 (ip), vehicle: saline sonified 101 % of control | dose: 16.0 mg/kg/injection, schedule: Q01DX015 (ip), vehicle: carboxymethylcellulose (CMC) 101 % of control | dose: 20.0 mg/kg/injection, schedule: Q04DX003 (ip), vehicle: saline sonified 101 % of control | dose: 32.0 mg/kg/injection, schedule: Q01DX015 (ip), vehicle: carboxymethylcellulose (CMC) 103 % of control

O=CNc1ccccc1[N+](=O)[O-]
inactive: [10] 94 % of control | [11] 94 % of control

CC(C)(C)COC(=O)c1ccccc1
inactive: dose: 100.0 mg/kg/injection, schedule: Q01DX001 (ip), vehicle: carboxymethylcellulose (CMC) 102 % of control | dose: 200.0 mg/kg/injection, schedule: Q01DX001 (ip), vehicle: carboxymethylcellulose (CMC) 91 % of control | dose: 400.0 mg/kg/injection, schedule: Q01DX001 (ip), vehicle: carboxymethylcellulose (CMC) 91 % of control

C/C(=N\O)c1ccc[n+](Cc2ccc(C)cc2)c1
inactive: dose: 9.38 mg/kg/injection, schedule: Q01DX001 (ip), vehicle: other 97 % of control | dose: 18.75 mg/kg/injection, schedule: Q01DX001 (ip), vehicle: other 97 % of control

O=C1CCC(c2ccc3c(c2)CCCC3)O1 (stereo unspecified)
inactive: dose: 50.0 mg/kg/injection, schedule: Q01DX009 (ip), vehicle: saline with Tween-80 97 % of control | [16] 95 % of control | [10] 105 % of control | [17] 90 % of control | [11] 105 % of control | [12] 95 % of control

COc1ccc(C(=O)C(C)CN2CCOCC2)cc1 (stereo unspecified)
inactive: [13] 102 % of control | [14] 105 % of control | [15] 102 % of control

CC(Oc1ccccc1)C(=O)NC(=S)Nc1cc(Cl)ccc1Cl (stereo unspecified)
inactive: dose: 100.0 mg/kg/injection, schedule: Q01DX001 (ip), vehicle: other 93 % of control | dose: 100.0 mg/kg/injection, schedule: Q01DX009 (ip), vehicle: other 94 % of control and 89 % of control | dose: 100.0 mg/kg/injection, schedule: Q04DX002 (ip), vehicle: other 119 % of control and 90 % of control | dose: 200.0 mg/kg/injection, schedule: Q01DX001 (ip), vehicle: other 88 % of control | dose: 200.0 mg/kg/injection, schedule: Q01DX009 (ip), vehicle: other 96 % of control and 89 % of control | dose: 200.0 mg/kg/injection, schedule: Q04DX002 (ip), vehicle: other 94 % of control and 102 % of control | dose: 400.0 mg/kg/injection, schedule: Q01DX009 (ip), vehicle: other 88 % of control | dose: 400.0 mg/kg/injection, schedule: Q04DX002 (ip), vehicle: other 102 % of control
